Measurements reported in publication PMC4674680, “An in cellulo-derived structure of PAK4 in complex with its inhibitor Inka1” (Nature Communications, 2015).
Blank lines part the entries; values can stand above or below the compound they belong to. No end group written: not given here.

What was measured:
[1] = target: T1, PAK4cat (Homo sapiens, UniProt O96013); test: In-cellulo crystal formation with PAK4cat; assay type: cell-based; design: PAK4 (286–591); settings: transfected mammalian cells
Protocol: Generation and harvesting of intracellular PAK4 crystals
COS-7, HeLa, HEK293 or U2OS cells (35-mm culture dish or glass coverslip) were typically transfected with 2.5 μg of each plasmid in 2 ml of media using Lipofectamine 2000 (Invitrogen) or the GenomeONE Neo EX haemagglutinating virus of Japan envelope transfection kit (Cosmo Bio Co. Ltd) as per the manufacturer's protocol. Crystals were observed by phase-contrast microscopy using a × 10 objective (Nikon Eclipse TE300) 1–4 days post transfection. The structure of Flag–iBox–PAK4cat (Figs 2 and 3) was determined from crystals grown in COS-7 cells. The cells were harvested 3 days after transfection by incubating in PBS with 0.125% (w/v) trypsin and 25% (v/v) glycerol (Merck) for 30 min. Individual cells containing single crystals were then mounted in 0.1–0.2 mm cryoloops (Hampton Research) and flash cooled in liquid nitrogen.

[2] = target: T1, PAK4cat; test: In-vitro kinase assay, PAK4cat (phosphorylation of GST-Raf13); assay type: biochemical; design: PAK1 (1–545) and PAK4 (286–591), respectively; 6His (N); made in house; host or cells: Escherichia coli BL21-CodonPlus(DE3); settings: Fig. 1d; n=3; IC50 from intercepts of the graphs; PAK 50 nM, 10 μM GST-Raf1S338, 10 μM ATP (γ32P), pH 7.3, 30 °C 20 min; peptide preincubated on ice 10 min
Protocol: Purified PAK1 or PAK4 (50 nM in 25–50 μl) were incubated with 10 μM GST-Raf1S338 peptide in 10 μM ATP (2 μCi of γ32P ATP) of kinase buffer (25 mM HEPES, pH 7.3, 0.1% Triton X-100, 50 mM KCl, 10 mM MgCl2, 1 mM dithiothreitol) at 30 °C for 20 min. Samples were analysed by SDS–PAGE or adsorption of the GST substrate mix onto polyvinylidene difluoride membranes, followed by extensive washing to remove free γ32P-ATP. The synthetic peptides of 95% purity, as determined by HPLC and mass spectrometric analyses (GenScript), were soluble in aqueous PBS. Stock solutions (10 mM) were quantified via calculated extinction coefficients and absorbance measurements at 280 nm and stored at −80 °C. The diluted peptides were incubated at the indicated concentrations with the kinase on ice (10 min) before addition of γ32P ATP and subsequent incubation at 30 °C. The synthetic peptide array (Jerini Biotools) was phosphorylated in situ as described previously.

[3] = system: PAK4; settings: binds in vitro; ATP-competitive; cited from earlier work
Protocol: As the Flag-iBox-PAK4 crystal structure contained bound ATP, which is stabilized by the Inka1 inhibitory peptide (Fig. 3a), we were interested on the effect of the ATP-competitive PAK4 inhibitor PF-03758309, which binds with 10 nM affinity in vitro[45]. […] Thus, PF-03758309 appears to allow PAK4cat to incorporate with sub-stoichiometric levels of GFP–Inka1, consistent with PF-03758309 either reducing the affinity of GFP–Inka1 or allowing PAK4cat inco ...

[4] = system: GFP–Inka1:PAK4cat co-crystals; test: Live imaging of growing GFP-Inka1:PAK4cat crystals, effect of PF-03758309; assay type: cell-based
Protocol: Live cell imaging of crystal growth and SIM and confocal microscopy
The cells were plated at 50% confluence glass cover slips overnight: plasmid transfection used GFP–iBox–Pak4cat and FLAG–iBox–Pak4cat constructs at a ratio of 4:1, to promote crystal nucleation. The cover slips were transferred to a Chamlide magnetic chamber (Live Cell Instruments, Seoul, Korea) with 5% CO2 at 37 °C for live imaging on an Zeiss Axiovert 200 M live-cell imaging with a × 10 objective. We imaged multiple chosen regions for 8 h at 6-min intervals. To measure crystal growth rate, we used instead a Nikon Eclipse Ti microscope equipped with spinning disk confocal attachment (Yokogawa CSU-22 module) to avoid photo-damage. The cells were imaged at × 60 1.4 numerical aperture (NA) objective at 2-min intervals. For SIM and confocal imaging, cells were fixed in non-hardening mounting media (Vectashield). The slides were imaged by Delta vision OMX SIM with a × 100 1.4 NA objective. […] The three-dimensional stacks were analysed by IMARIS software.

T1 sequence (O96013 286-591): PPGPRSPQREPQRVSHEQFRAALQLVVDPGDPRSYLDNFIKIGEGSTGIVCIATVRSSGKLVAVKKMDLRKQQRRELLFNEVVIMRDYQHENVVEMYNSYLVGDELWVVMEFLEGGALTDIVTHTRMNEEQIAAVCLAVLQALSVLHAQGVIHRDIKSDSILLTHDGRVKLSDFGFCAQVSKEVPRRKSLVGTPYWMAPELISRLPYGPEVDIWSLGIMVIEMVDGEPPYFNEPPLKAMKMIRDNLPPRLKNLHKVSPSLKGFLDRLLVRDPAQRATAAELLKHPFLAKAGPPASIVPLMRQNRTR

Compound: Inka1 (255–285): C-terminal 31 amino acid of Inka1 (RPEPELPADVSRFAALMSCRSRQPIICNDVS; UniProt Q96EL1 255-285, looked up, fragment)
Induction of intracellular crystals with PAK4cat, in words [1]: able to induce crystals more efficiently than the Inka1 (166–203)

IC50 [2]: 5 µM
Compound: RGRSRQPLVLGDNC [iBox14]

Compound: Cc1nc(Nc2[nH]nc3c2CN(C(=O)N[C@H](CN(C)C)c2ccccc2)C3(C)C)c2sccc2n1 [PF-03758309]
affinity [3]: 10 nM
Effect on crystal GFP signal, in words ([4]; 5 μM PF-03758309, elongation phase): depleted of GFP signal
Effect on crystal growth rate, in words ([4]; after PF3758309 addition (5 μM), Fig. 6d): Crystal growth slowed
